Assay results taken from patent US9951068B2 (Proximagen Limited, priority 2013, dated 2018).
Structures can show the parent of a compound that is named as a salt.

biological target: purified recombinantly expressed human SSAO (Homo sapiens (Human), UniProt Q16853); test: SSAO enzyme inhibition assay (HRP-coupled hydrogen peroxide detection or 14C-benzaldehyde detection, benzylamine substrate); format: biochemical; conditions: SSAO inhibitory activity, human recombinant SSAO, RT
Experimental: All primary assays were performed at RT. with purified recombinantly expressed human SSAO. Enzyme was prepared essentially as described in Öhman et al. (Protein Expression and Purification 46 (2006) 321-331). In addition, secondary- and selectivity assays were performed using SSAO prepared from various tissues or purified rat recombinant SSAO. The enzyme activity was assayed with benzylamine as substrate by measuring either benzaldehyde production, using ^14C-labeled substrate, or by utilizing the production of hydrogen peroxide in a horseradish peroxidase (HRP) coupled reaction. Briefly, test compounds were dissolved in dimethyl sulfoxide (DMSO) to a concentration of 10 mM. Dose-response measurements were assayed by either creating 1:10 serial dilutions in DMSO to produce a 7 point curve or by making 1:3 serial dilutions in DMSO to produce 11 point curves.
In a horseradish peroxidase (HRP) coupled reaction, hydrogen peroxide oxidation of 10-acetyl-3,7-dihydroxyphenoxazine produced resorufin, which is a highly fluorescent compound (Zhout and Panchuk-Voloshina. Analytical Biochemistry 253 (1997) 169-174; Amplex® Red Hydrogen Peroxide/peroxidase Assay kit, Invitrogen A22188). Enzyme and compounds in 50 mM sodium phosphate, pH 7.4 were set to pre-incubate in flat-bottomed microtiter plates for approximately 15 min before initiating the reaction by addition of a mixture of HRP, benzylamine and Amplex reagent. Benzylamine concentration was fixed at a concentration corresponding to the Michaelis constant, determined using standard procedures. Fluorescence intensity was then measured at several time points during 1-2 h, exciting at 544 nm and reading the emission at 590 nm. For the human SSAO assay final concentrations of the reagents in the assay wells were: SSAO enzyme 1 ug/ml, benzylamine 100 uM, Amplex reagent 20 uM, HRP 0.1 U/mL and varying concentrations of test compound. The inhibition was measured as % decrease of the signal compared to a control without inhibitor (only diluted DMSO). The background signal from a sample containing no SSAO enzyme was subtracted from all data points. Data was fitted to a four parameter logistic model and IC50 values were calculated using the GraphPad Prism 4 or XLfit 4 programs.
SSAO activity was assayed using 14C-labeled benzylamine and analysed by measuring radioactive benzaldehyde. In a white 96-well optiplate (Packard), 20 uL of diluted test compound was pre-incubated at room temperature with 20 uL SSAO enzyme for approximately 15 min with continuous agitation. All dilutions were made with PBS. The reaction was initiated by adding 20 uL of the benzylamine substrate solution containing [7-14C] Benzylamine hydrochloride (CFA589, GE Healthcare). The plate was incubated for 1 h as above after which the reaction was stopped by acidification (10 uL 1M aq HCl). Then 90 uL Micro Scint-E solution (Perkin-Elmer) was added to each well and the plate was continuously mixed for 15 min. Phase separation occurred instantly and activity was read in a Topcount scintillation counter (Perkin-Elmer). In the final reaction well, the human recombinant SSAO concentration was 10 ug/ml. In order to optimize sensitivity, the substrate concentration was decreased as compared to the HRP coupled assay in order to get a higher fraction of radioactive product. In the human SSAO assay, benzylamine concentration was 40 uM (0.2 uCi/mL). Data was analysed as above.

purified recombinantly expressed human SSAO, sequence (Q16853 29-763): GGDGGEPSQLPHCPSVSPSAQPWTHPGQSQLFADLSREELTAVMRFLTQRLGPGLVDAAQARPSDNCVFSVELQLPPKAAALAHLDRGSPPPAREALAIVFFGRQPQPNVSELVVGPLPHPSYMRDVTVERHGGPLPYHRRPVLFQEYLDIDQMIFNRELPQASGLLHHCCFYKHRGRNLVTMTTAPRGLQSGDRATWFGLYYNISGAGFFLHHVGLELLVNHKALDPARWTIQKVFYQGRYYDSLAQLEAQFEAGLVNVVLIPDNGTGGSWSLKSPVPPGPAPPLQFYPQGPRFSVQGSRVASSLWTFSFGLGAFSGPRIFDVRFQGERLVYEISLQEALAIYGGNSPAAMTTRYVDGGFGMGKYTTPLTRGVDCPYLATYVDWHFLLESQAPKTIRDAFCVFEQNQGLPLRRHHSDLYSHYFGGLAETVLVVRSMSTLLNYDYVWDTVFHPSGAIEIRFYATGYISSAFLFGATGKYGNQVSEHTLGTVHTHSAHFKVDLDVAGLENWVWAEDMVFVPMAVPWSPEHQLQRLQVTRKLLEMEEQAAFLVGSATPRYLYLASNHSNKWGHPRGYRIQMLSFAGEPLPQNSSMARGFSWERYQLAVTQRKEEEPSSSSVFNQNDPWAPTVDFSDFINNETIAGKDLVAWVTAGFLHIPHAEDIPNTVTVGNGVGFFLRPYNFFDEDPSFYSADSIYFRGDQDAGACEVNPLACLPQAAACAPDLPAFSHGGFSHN

IC50, < 50 nM:
Fc1ccc(-n2c(-c3cnc(N4CCCOCC4)nc3)nc3ccncc32)cc1 [Example 25, 4-{5-[3-(4-Fluorophenyl)-3H-imidazo[4,5-c]pyridin-2-yl]pyrimidin-2-yl}-1,4-oxazepane]
Cn1c(-c2cc3ccncc3n2-c2ccc(Cl)cc2)cccc1=O [Example 145, 6-[1-(4-Chlorophenyl)-1H-pyrrolo[2,3-c]pyridin-2-yl]-1-methyl-1,2-dihydropyridin-2-one]
Clc1ccc(-n2c(-c3ccc(Cn4ccnc4)cc3)nc3ccncc32)cc1 [Example 48, 1-({4-[3-(4-Chlorophenyl)-3H-imidazo[4,5-c]pyridin-2-yl]phenyl}methyl)-1H-imidazole]
Nc1cc(-c2cc3ccncc3n2-c2ccc(Cl)cc2)ccn1 [Example 147, 4-[1-(4-Chlorophenyl)-1H-pyrrolo[2,3-c]pyridin-2-yl]pyridin-2-amine]
Cn1cc(-c2cc3ccncc3n2-c2ccc(Cl)cc2)cn1 [Example 135, 4-[1-(4-Chlorophenyl)-1H-pyrrolo[2,3-c]pyridin-2-yl]-1-methyl-1H-pyrazole]
Cc1cc(N2CCOCC2)ncc1-c1cc2ccncc2n1-c1ccc(Cl)cc1 [Example 129, 4-{5-[1-(4-Chlorophenyl)-1H-pyrrolo[2,3-c]pyridin-2-yl]-4-methylpyridin-2-yl}morpholine; bis(trifluoroacetic acid)]
Clc1ccc(-n2c(-c3ccc(N4CCOCC4)nn3)nc3ccncc32)cc1 [Example 4, 4-{6-[3-(4-Chlorophenyl)-3H-imidazo[4,5-c]pyridin-2-yl]pyridazin-3-yl}morpholine]
Cn1nccc1-c1cc2ccncc2n1-c1ccc(Cl)cc1 [Example 134, 5-[1-(4-Chlorophenyl)-1H-pyrrolo[2,3-c]pyridin-2-yl]-1-methyl-1H-pyrazole]
Cc1cc(F)ccc1-n1c(-c2cnc(N3CCOCC3)nc2)nc2ccncc21 [Example 55, 4-{5-[3-(4-Fluoro-2-methylphenyl)-3H-imidazo[4,5-c]pyridin-2-yl]pyrimidin-2-yl}morpholine]
NC(=O)N1CCN(c2ccc(-c3nc4ccncc4n3-c3ccc(Cl)cc3)cn2)CC1 [Example 90, 4-{5-[3-(4-Chlorophenyl)-3H-imidazo[4,5-c]pyridin-2-yl]pyridin-2-yl}piperazine-1-carboxamide dihydrochloride]
Clc1ccc(-n2c(-c3cnccn3)cc3ccncc32)cc1 [Example 124, 2-[1-(4-Chlorophenyl)-1H-pyrrolo[2,3-c]pyridin-2-yl]pyrazine]
Fc1ccc(-n2c(-c3ccc(N4CCOCC4)nc3)nc3ccncc32)c(Cl)c1 [Example 61, 4-{5-[3-(2-Chloro-4-fluorophenyl)-3H-imidazo[4,5-c]pyridin-2-yl]pyridin-2-yl}morpholine]
Cc1ccc(-n2c(-c3ccc(N4CCOCC4)nc3)nc3ccncc32)c(F)c1 [Example 67, 4-{5-[3-(2-Fluoro-4-methylphenyl)-3H-imidazo[4,5-c]pyridin-2-yl]pyridin-2-yl}morpholine]
Cc1cc(N2CCOCC2)ncc1-c1nc2ccncc2n1-c1ccc(Cl)cc1F [Example 22, 4-{5-[3-(4-Chloro-2-fluorophenyl)-3H-imidazo[4,5-c]pyridin-2-yl]-4-methylpyridin-2-yl}morpholine]
Brc1ccc(-n2c(-c3cnc(N4CCOCC4)nc3)cc3ccncc32)cc1 [Example 133, 4-{5-[1-(4-Bromophenyl)-1H-pyrrolo[2,3-c]pyridin-2-yl]pyrimidin-2-yl}morpholine]
Clc1ccc(-n2c(-c3ccc(N4CCOCC4)nc3)nc3ccncc32)cc1 [Example 47, 4-{5-[3-(4-Chlorophenyl)-3H-imidazo[4,5-c]pyridin-2-yl]pyridin-2-yl}morpholine]
Oc1ccc(-n2c(-c3ccc(N4CCOCC4)nc3)nc3ccncc32)cc1 [Example 65, 4-{2-[6-(Morpholin-4-yl)pyridin-3-yl]-3H-imidazo[4,5-c]pyridin-3-yl}phenol]
